Source: patent US20230219904A1 (SYNGENTA CROP PROTECTION AG, priority 2020, published 2023)

Assays:
Assay type in all cases: in vivo
Settings in all cases: evaluated after 13 days
[1] = tested on: Echinochloa crus-galh (ECHCG); experiment: Post-emergence herbicidal glasshouse test (Table B1)
In short: (§1)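 Spraying at 500 g/h unless indicated occurs either one day after sowing (pre-emergence) or after 8 days of cultivation (post-emergence). Percentage damage is then assessed after 13 days and binned as 5=80-100%, 4=60-79%, 3=40-59%, 2=20-39%, 1=0-19%.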

Setaria faberi (SETFA) [2] = experiment: as above
In short: as §1

[3] = tested on: Ipomoea hederacea (IPOHE); experiment: as above
In short: as §1

[4] = tested on: Amaranthus retoflexus (AMARE); experiment: as above
In short: as §1

[5] = tested on: Abutilon theophrasti (ABUTH); experiment: as above
In short: as §1

[6] = tested on: Echinochloa crus-galh (ECHCG); experiment: Pre-emergence herbicidal glasshouse test (Table B1)
In short: as §1

Setaria faberi (SETFA) [7] = experiment: as above
In short: as §1

[8] = tested on: Ipomoea hederacea (IPOHE); experiment: as above
In short: as §1

[9] = tested on: Amaranthus retoflexus (AMARE); experiment: as above
In short: as §1

[10] = tested on: Abutilon theophrasti (ABUTH); experiment: as above
In short: as §1

Row | Compound | POST Application ECHCG, percentage damage on five-point scale ([1]; applied at 500 g/h) | POST Application SETFA, percentage damage on five-point scale (Setaria faberi (SETFA) [2]; applied at 500 g/h) | POST Application IPOHE, percentage damage on five-point scale ([3]; applied at 500 g/h) | POST Application AMARE, percentage damage on five-point scale ([4]; applied at 500 g/h) | POST Application ABUTH, percentage damage on five-point scale ([5]; applied at 500 g/h) | PRE Application ECHCG, percentage damage on five-point scale ([6]; applied at 500 g/h) | PRE Application SETFA, percentage damage on five-point scale (Setaria faberi (SETFA) [7]; applied at 500 g/h) | PRE Application IPOHE, percentage damage on five-point scale ([8]; applied) | PRE Application AMARE, percentage damage on five-point scale ([9]; applied at 500 g/h) | PRE Application ABUTH, percentage damage on five-point scale ([10]; applied at 500 g/h) | POST Application ECHCG, percentage damage on five-point scale ([1]; applied at 125 g/ha) | POST Application SETFA, percentage damage on five-point scale (Setaria faberi (SETFA) [2]; applied at 125 g/ha) | POST Application IPOHE, percentage damage on five-point scale ([3]; applied at 125 g/ha) | POST Application AMARE, percentage damage on five-point scale ([4]; applied at 125 g/ha) | POST Application ABUTH, percentage damage on five-point scale ([5]; applied at 125 g/ha) | PRE Application ECHCG, percentage damage on five-point scale ([6]; applied at 125 g/ha) | PRE Application SETFA, percentage damage on five-point scale (Setaria faberi (SETFA) [7]; applied at 125 g/ha) | PRE Application IPOHE, percentage damage on five-point scale ([8]; applied at 125 g/ha) | PRE Application AMARE, percentage damage on five-point scale ([9]; applied at 125 g/ha) | PRE Application ABUTH, percentage damage on five-point scale ([10]; applied at 125 g/ha)
1 | CN(C)c1c(OC(F)(F)F)ccc(C(=O)Nc2nnnn2C)c1Cl [Compound 1.001] | 5 (5=80-100%) | 5 (5=80-100%) | 5 (5=80-100%) | 5 (5=80-100%) | 5 (5=80-100%) | 5 (5=80-100%) | 5 (5=80-100%) | 5 (5=80-100%) | 5 (5=80-100%) | 5 (5=80-100%) | – | – | – | – | – | – | – | – | – | –
2 | CNc1c(OC(F)(F)F)ccc(C(=O)Nc2nnnn2C)c1Cl [Compound 1.005] | 5 (5=80-100%) | 5 (5=80-100%) | 5 (5=80-100%) | 5 (5=80-100%) | 5 (5=80-100%) | 5 (5=80-100%) | 5 (5=80-100%) | 5 (5=80-100%) | 5 (5=80-100%) | 5 (5=80-100%) | – | – | – | – | – | – | – | – | – | –
3 | Cn1nnnc1NC(=O)c1ccc(OC(F)(F)F)c(NC(=O)C2CC2)c1Cl [Compound 1.006, 2-chloro-3-(cyclopropanecarbonylamino)-N-(1-methyltetrazol-5-yl)-4-(trifluoromethoxy)benzamide] | 5 (5=80-100%) | 5 (5=80-100%) | 5 (5=80-100%) | 5 (5=80-100%) | 5 (5=80-100%) | 5 (5=80-100%) | 5 (5=80-100%) | 2 (2=20-39%) | 5 (5=80-100%) | 5 (5=80-100%) | – | – | – | – | – | – | – | – | – | –
4 | CC(C)CC(=O)Nc1c(OC(F)(F)F)ccc(C(=O)Nc2nnnn2C)c1Cl [Compound 1.008] | 5 (5=80-100%) | 5 (5=80-100%) | 5 (5=80-100%) | 5 (5=80-100%) | 5 (5=80-100%) | 5 (5=80-100%) | 4 (4=60-79%) | 3 (3=40-59%) | 5 (5=80-100%) | 5 (5=80-100%) | – | – | – | – | – | – | – | – | – | –
5 | CC(F)C(=O)Nc1c(OC(F)(F)F)ccc(C(=O)Nc2nnnn2C)c1Cl (stereo not drawn) [Compound 1.009] | 5 (5=80-100%) | 5 (5=80-100%) | 5 (5=80-100%) | 5 (5=80-100%) | 5 (5=80-100%) | 1 (1=0-19%) | 5 (5=80-100%) | 4 (4=60-79%) | 5 (5=80-100%) | 5 (5=80-100%) | – | – | – | – | – | – | – | – | – | –
6 | Cc1ncc(C(=O)Nc2c(OC(F)(F)F)ccc(C(=O)Nc3nnnn3C)c2Cl)s1 [Compound 1.010] | 5 (5=80-100%) | 5 (5=80-100%) | 5 (5=80-100%) | – | 5 (5=80-100%) | 1 (1=0-19%) | 2 (2=20-39%) | 2 (2=20-39%) | 5 (5=80-100%) | 5 (5=80-100%) | – | – | – | – | – | – | – | – | – | –
7 | Cc1cc(C(=O)Nc2c(OC(F)(F)F)ccc(C(=O)Nc3nnnn3C)c2Cl)no1 [Compound 1.011] | 5 (5=80-100%) | 4 (4=60-79%) | 5 (5=80-100%) | 5 (5=80-100%) | 5 (5=80-100%) | 1 (1=0-19%) | 1 (1=0-19%) | 4 (4=60-79%) | 5 (5=80-100%) | 4 (4=60-79%) | – | – | – | – | – | – | – | – | – | –
8 | CCn1nnnc1NC(=O)c1ccc(OC(F)(F)F)c(NC(C)=O)c1Cl [Compound 1.015] | 5 (5=80-100%) | 5 (5=80-100%) | 5 (5=80-100%) | 5 (5=80-100%) | 5 (5=80-100%) | 4 (4=60-79%) | 2 (2=20-39%) | 1 (1=0-19%) | 5 (5=80-100%) | 5 (5=80-100%) | – | – | – | – | – | – | – | – | – | –
9 | CC(F)C(=O)Nc1c(OCC(F)(F)F)ccc(C(=O)Nc2nnnn2C)c1Cl (stereo not drawn) [Compound 1.016, 2-chloro-3-(2-fluoropropanoylamino)-N-(1-methyltetrazol-5-yl)-4-(2,2,2-trifluoroethoxy)benzamide] | 5 (5=80-100%) | 5 (5=80-100%) | 5 (5=80-100%) | 5 (5=80-100%) | 5 (5=80-100%) | 5 (5=80-100%) | 5 (5=80-100%) | 5 (5=80-100%) | 5 (5=80-100%) | 5 (5=80-100%) | – | – | – | – | – | – | – | – | – | –
10 | Cn1nnnc1NC(=O)c1ccc(OCC(F)(F)F)c(NC(=O)C2CC2)c1Cl [Compound 1.017] | 5 (5=80-100%) | 5 (5=80-100%) | 5 (5=80-100%) | 5 (5=80-100%) | 4 (4=60-79%) | 5 (5=80-100%) | 5 (5=80-100%) | 5 (5=80-100%) | 5 (5=80-100%) | 5 (5=80-100%) | – | – | – | – | – | – | – | – | – | –
11 | CC(=O)Nc1c(OCC(F)(F)F)ccc(C(=O)Nc2nnnn2C)c1Cl [Compound 1.018, 3-acetamido-2-chloro-N-(1-methyltetrazol-5-yl)-4-(2,2,2-trifluoroethoxy)benzamide] | 5 (5=80-100%) | 5 (5=80-100%) | 4 (4=60-79%) | 5 (5=80-100%) | 5 (5=80-100%) | 3 (3=40-59%) | 3 (3=40-59%) | 3 (3=40-59%) | 5 (5=80-100%) | 4 (4=60-79%) | – | – | – | – | – | – | – | – | – | –
12 | Cn1nnnc1NC(=O)c1ccc(OC(F)F)c(NC(=O)C2CC2)c1Cl [Compound 1.019] | – | – | – | – | – | – | – | – | – | – | 5 (5=80-100%) | 5 (5=80-100%) | 5 (5=80-100%) | 5 (5=80-100%) | 5 (5=80-100%) | 5 (5=80-100%) | 5 (5=80-100%) | 5 (5=80-100%) | 5 (5=80-100%) | 5 (5=80-100%)
13 | CC(C)C(=O)Nc1c(OC(F)F)ccc(C(=O)Nc2nnnn2C)c1Cl [Compound 1.020] | – | – | – | – | – | – | – | – | – | – | 5 (5=80-100%) | 5 (5=80-100%) | 5 (5=80-100%) | 5 (5=80-100%) | 5 (5=80-100%) | 5 (5=80-100%) | 5 (5=80-100%) | 5 (5=80-100%) | 5 (5=80-100%) | 5 (5=80-100%)
